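Cells were grown in 96-well plates and exposed to each compound for 48 hours at five concentrations; endpoints were interpolated linearly between bracketing concentrations, or set to the highest concentration if not reached. The concentration for full growth arrest is given as TGI.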
Key:
Experiment in all cases: inhibition of tumour cell growth, NCI panel, 48 h
OVCAR-8 ovarian = tested on: OVCAR-8 ovarian
SF-268 CNS = tested on: SF-268 CNS
UACC-257 melanoma = tested on: UACC-257 melanoma
NCI-H226 lung = tested on: NCI-H226 lung
U251 CNS = tested on: U251 CNS
SF-539 CNS = tested on: SF-539 CNS
SR leukemia = tested on: SR leukemia
MDA-MB-435 = tested on: MDA-MB-435
K-562 leukemia = tested on: K-562 leukemia
NCI-H23 lung = tested on: NCI-H23 lung
SW-620 colon = tested on: SW-620 colon
LOX IMVI melanoma = tested on: LOX IMVI melanoma
HCT-116 colon = tested on: HCT-116 colon
HCC-2998 colon = tested on: HCC-2998 colon
UO-31 renal = tested on: UO-31 renal
DU-145 prostate = tested on: DU-145 prostate
PC-3 prostate = tested on: PC-3 prostate
OVCAR-4 ovarian = tested on: OVCAR-4 ovarian
SK-MEL-2 melanoma = tested on: SK-MEL-2 melanoma
MCF7 breast = tested on: MCF7 breast
ACHN renal = tested on: ACHN renal
T-47D breast = tested on: T-47D breast
NCI/ADR-RES ovarian = tested on: NCI/ADR-RES ovarian
UACC-62 melanoma = tested on: UACC-62 melanoma
M14 melanoma = tested on: M14 melanoma
BT-549 breast = tested on: BT-549 breast
HT29 colon = tested on: HT29 colon
MALME-3M melanoma = tested on: MALME-3M melanoma
IGROV1 ovarian = tested on: IGROV1 ovarian
RPMI-8226 leukemia = tested on: RPMI-8226 leukemia
CAKI-1 renal = tested on: CAKI-1 renal
MDA-MB-231 breast = tested on: MDA-MB-231 breast
NCI-H460 lung = tested on: NCI-H460 lung
OVCAR-5 ovarian = tested on: OVCAR-5 ovarian
COLO 205 colon = tested on: COLO 205 colon
SK-OV-3 ovarian = tested on: SK-OV-3 ovarian
786-0 renal = tested on: 786-0 renal
HCT-15 colon = tested on: HCT-15 colon
TK-10 renal = tested on: TK-10 renal
A549 NSCLC = tested on: A549 NSCLC
SK-MEL-5 melanoma = tested on: SK-MEL-5 melanoma
SNB-19 CNS = tested on: SNB-19 CNS
HOP-62 NSCLC = tested on: HOP-62 NSCLC
EKVX NSCLC = tested on: EKVX NSCLC
KM12 colon = tested on: KM12 colon
SF-295 CNS = tested on: SF-295 CNS
OVCAR-3 ovarian = tested on: OVCAR-3 ovarian

Measured: TGI

CCN1CCC(C)OP1(=O)Cc1ccccc1 (configuration not stated)
> 100 µM: all assays above

From PubChem BioAssay (NCI)
